Data taken from patent US10766912B2 (priority 2017, dated 2020).
Read-outs that look alike come from different tables or passages of the source.

Legend:
Assay type in all cases: cell-based
[1] = tested on: HCV GT1b wild type (wt) replicon; test: Assay Example 2: activity against HCV GT1b wild-type replicon; conditions: Hepatitis C virus, read-out: EC50 Value GT1b-wt
Method: (§1) Cells: Huh-7 cells are liver cancer cell strains (from AppTec, USA), HCV GT1a and GT1b wild type (wt) replicons, GT1b/3a, GT1b/4a, GT1b/5a and GT1b/6a NS5A chimeric replicons.
(§2) Treatment of Compound: According to the assay final concentrations of the compounds in Table 5, DMSO stock solutions of the compounds were diluted and then added to a 96-well assay plate. The final concentration of DMSO was 0.5%.
(§3) The preparation of cells: After replicon plasmid DNA was linearized with a corresponding restriction enzyme, the DNA was transcribed into RNA by using T7 RNA polymerase. Replicon RNA prepared by transcription in vitro was transfected into Huh-7 cells by electroporation. Transfected cells were seeded at a density of 10,000 cells per well into the 96-well assay plate containing the diluted compounds, and then placed in a 37° C. incubator with 5% CO2 and cultured for 3 days.
(§4) Drug activity assay: Luminescence signal value (RLU) was detected with Envision within 15 minutes using the luciferase assay reagent Britelite plus, and the original data (RLU) was used for the calculation of the activity of the compounds.
(§5) The cytotoxicity of the compounds was calculated by using the equation below: Cell Viability %=(CPD−HPE)/(ZPE−HPE)×100%* The activity of the compounds was calculated by using the equation below: Inhibition %=(ZPE−CPD)/(ZPE−HPE)×100%*
(§6) The cell viability percentages (Viability %) and the inhibition percentages (Inhibition %) were imported into GraphPad Prism software, respectively, and curves were fitted by using nonlinear regression method to obtain the corresponding curves of the compounds, and the cytotoxicity (CC50) thereof and the inhibitory activity (EC50) values against the HCV replicon thereof.

[2] = Assay Example 2: cell viability assay (CellTiter-Fluor), GT1b wild-type replicon plate; conditions: human, Huh-7 cells with GT1b wild-type replicon, read-out: CC50 Value GT1b-wt
Method: as §1, §2, §3
(§7) Cell viability assay: A cell growth fluorescent titration detection reagent CellTiter-Fluor was added to the 96-well plate of the GT1b wild-type replicon. After the cells were cultured for 1 hour in a 37° C. incubator with 5% CO2, the fluorescence signal value (RFU) was detected by Envision, and the original data (RFU) was used for the calculation of the cytotoxicity of the compounds.
as §5, §6

[3] = tested on: HCV GT1b/3a NS5A chimeric replicon; test: Assay Example 2: activity against GT1b/3a NS5A chimeric replicon; conditions: Hepatitis C virus, Huh-7, 72 h, read-out: EC50 Value GT1b/3a-NS5A-wt
Method: as §1, §2, §3, §4, §5, §6

[4] = tested on: HCV GT1b/6a NS5A chimeric replicon; test: Assay Example 2: activity against GT1b/6a NS5A chimeric replicon; conditions: Hepatitis C virus, Huh-7, 72 h, read-out: EC50 Value GT1b/6a-NS5A-wt
Method: as §1, §2, §3, §4, §5, §6

[5] = tested on: HCV GT1b/3a NS5A chimeric replicon; test: Assay Example 1: activity against HCV GT1b/3a NS5A chimeric replicon; conditions: Hepatitis C virus, Huh-7, 72 h, read-out: EC50 value GT1b/3a NS5A chimeric replicon
Method: (§8) Cells: Huh 7 cell line and HCV GT1b/3a and GT1b/6a NS5A chimeric replicons and GT1b and GT1a wild-type replicon RNA.
(§9) Treatment of Compound: According to the assay final concentrations of the compounds in Table 2, DMSO stock solutions of the compounds were diluted and then added to a 96-well assay plate. The final concentration of DMSO was 0.5%.
as §3, with “T7RNA” for “T7 RNA”, “then the plate was” for “then”
as §4
(§10) The activity of the compounds was calculated by using the equation below: Inhibition %=(ZPE−CPD)/(ZPE−HPE)×100%*
as §6, with “thereof and inhibitory activity” for “thereof and the inhibitory activity”

in vitro = conditions: human; Huh 7 cells with GT1b wild-type replicon, 3 days, CellTiter-Fluor
Method: as §8, §9
as §3, with “T7RNA” for “T7 RNA”, “then the plate was” for “then”
as §7
The cytotoxicity of the compounds was calculated by using the equation below: Cell Viability %=(CPD−HPE)/(ZPE−HPE)×100%*
as §6, with “thereof and inhibitory activity” for “thereof and the inhibitory activity”

[6] = tested on: HCV GT1b wild-type replicon; test: Assay Example 1: activity against HCV GT1b wild-type replicon (luciferase, transient transfection); conditions: Hepatitis C virus, 72 h, Huh 7 cells, 3 days
Method: as §8, §9
as §3, with “T7RNA” for “T7 RNA”, “then the plate was” for “then”
as §4, §10
as §6, with “thereof and inhibitory activity” for “thereof and the inhibitory activity”

[7] = tested on: HCV GT1b/6a NS5A chimeric replicon; test: Assay Example 1: activity against HCV GT1b/6a NS5A chimeric replicon; conditions: Hepatitis C virus, Huh-7, 72 h, read-out: EC50 value GT1b/6a NS5A chimeric replicon
Method: as §8, §9
as §3, with “T7RNA” for “T7 RNA”, “then the plate was” for “then”
as §4, §10
as §6, with “thereof and inhibitory activity” for “thereof and the inhibitory activity”

[8] = tested on: HCV GT1a wild-type replicon; test: Assay Example 1: activity against HCV GT1a wild-type replicon; conditions: Hepatitis C virus, 72 h, Huh 7 cells, 3 days, luciferase
Method: as §8, §9
as §3, with “T7RNA” for “T7 RNA”, “then the plate was” for “then”
as §4, §10
as §6, with “thereof and inhibitory activity” for “thereof and the inhibitory activity”

[9] = 72 h, Huh-7 cells, transient transfection, 3 days
[10] = Huh-7 cells transfected with HCV GT1b wild-type replicon RNA

Compound	EC50 [1, 9] [nM]	CC50 at 3 days [2, 10] [nM]	EC50 [3] [nM]	EC50 ([1]; Huh-7, 72 h) [nM]	EC50 [4] [nM]	CC50 at 3 days [2] [nM]	EC50 [5] [nM]	CC50 (in vitro) [nM]	EC50 [6] [nM]	EC50 [7] [nM]	EC50 [8] [nM]
COC(=O)N[C@H](C(=O)N1CCCC1c1nc2cc([C@H]3CC[C@H](c4ccc(-c5cnc([C@@H]6CCCN6C(=O)[C@@H](NC(=O)OC)[C@@H](C)OC)[nH]5)cc4)N3c3cc(F)c(N4CC[Si](C)(C)CC4)c(F)c3)ccc2[nH]1)[C@@H](C)OC (stereo partly shown) [Compound 15b]	0.00295	> 0.2	0.00728								
COC(=O)N[C@H](C(=O)N1CCC[C@H]1C(=O)Nc1ccc([C@@H]2CC[C@@H](c3ccc(NC(=O)[C@@H]4CCCN4C(=O)[C@@H](NC(=O)OC)[C@@H](C)OC)cc3)N2c2cc(F)c(N3CC[Si]4(CCCCC4)CC3)c(F)c2)cc1)[C@@H](C)OC [Compound 11a]			0.0088	0.00135	0.00169	> 0.2					
COC(=O)N[C@H](C(=O)N1CCCC1C(=O)Nc1ccc([C@@H]2CC[C@@H](c3ccc(-c4cnc([C@@H]5CCCN5C(=O)[C@@H](NC(=O)OC)[C@@H](C)OC)[nH]4)cc3)N2c2cc(F)c(N3CC[Si](C)(C)CC3)c(F)c2)cc1)[C@@H](C)OC (stereo partly shown) [Compound 8a]	0.00208	> 0.2	0.0797		0.00905						
COC(=O)N[C@H](C(=O)N1CCCC1C(=O)Nc1ccc([C@H]2CC[C@H](c3ccc(-c4cnc([C@@H]5CCCN5C(=O)[C@@H](NC(=O)OC)[C@@H](C)OC)[nH]4)cc3)N2c2cc(F)c(N3CC[Si](C)(C)CC3)c(F)c2)cc1)[C@@H](C)OC (stereo partly drawn) [Compound 8b, Methyl ((2S,3R)-1-((S)-2-((4-((2R,5R)-1-(4-(4,4-dimethylazasilinan-1-yl)-3,5-difluorophenyl-5-(4-(2-((S)-1-(N-methoxycarbonyl)-O-methyl-L-threonyl)pyrrolidin-2-yl)-1H-imidazazol-5-yl)phenyl)pyrrolidin-2-yl)phenyl)carbamoyl)pyrrolidin-1-yl)-3-methoxy-1-oxobutan-2-yl)carbamate]	0.00159	> 0.2	0.0679		0.00673						
COC(=O)N[C@H](C(=O)N1CCC[C@H]1c1nc2cc([C@@H]3CC[C@@H](c4ccc5[nH]c([C@@H]6CCCN6C(=O)[C@@H](NC(=O)OC)[C@@H](C)OC)nc5c4)N3c3cc(F)c(N4CC[Si](C)(C)CC4)c(F)c3)ccc2[nH]1)[C@@H](C)OC [Compound 4a]							0.0039	> 0.1	0.011	0.026	0.0054
COC(=O)N[C@H](C(=O)N1CCC[C@H]1c1nc2cc([C@H]3CC[C@H](c4ccc5[nH]c([C@@H]6CCCN6C(=O)[C@@H](NC(=O)OC)[C@@H](C)OC)nc5c4)N3c3cc(F)c(N4CC[Si](C)(C)CC4)c(F)c3)ccc2[nH]1)[C@@H](C)OC [Compound 4b]							0.0015	> 0.1	0.0059	0.005	0.0041
COC(=O)N[C@H](C(=O)N1CCC[C@H]1C(=O)Nc1ccc([C@@H]2CC[C@@H](c3ccc(NC(=O)[C@@H]4CCCN4C(=O)[C@@H](NC(=O)OC)[C@@H](C)OC)cc3)N2c2ccc(N3CC[Si](C)(C)CC3)c(F)c2)cc1)[C@@H](C)OC [Compound 2a, Methyl ((2S, 2′S, 3R, 3′R)-((2S, 2′S)-(((((2S, 5S)-1-(4-(4,4-dimethylazasilinan-1-yl)-3-fluorophenyl)pyrrolidin-2,5-diyl)bis(4,1-phenylene))bis(azanediyl))bis(carbonyl))bis(pyrrolidin-2,1-diyl))bis(3-methoxy-1-oxobutan-1,2-diyl))dicarbamate]							0.006	> 0.1	0.0029	0.242	0.012
COC(=O)N[C@H](C(=O)N1CCC[C@H]1c1nc2cc([C@@H]3CC[C@@H](c4ccc5[nH]c([C@@H]6CCCN6C(=O)[C@@H](NC(=O)OC)[C@@H](C)OC)nc5c4)N3c3ccc(N4CC[Si](C)(C)CC4)c(F)c3)ccc2[nH]1)[C@@H](C)OC [Compound 5a]							0.013	> 0.1	0.019	0.174	0.017
COC(=O)N[C@H](C(=O)N1CCC[C@H]1c1nc2cc([C@H]3CC[C@H](c4ccc5[nH]c([C@@H]6CCCN6C(=O)[C@@H](NC(=O)OC)[C@@H](C)OC)nc5c4)N3c3ccc(N4CC[Si](C)(C)CC4)c(F)c3)ccc2[nH]1)[C@@H](C)OC [Compound 5b]							0.0063	> 0.1	0.017	0.016	0.013
COC(=O)N[C@H](C(=O)N1CCC[C@H]1C(=O)Nc1ccc([C@H]2CC[C@H](c3ccc(NC(=O)[C@@H]4CCCN4C(=O)[C@@H](NC(=O)OC)[C@@H](C)OC)cc3)N2c2ccc(N3CC[Si](C)(C)CC3)c(F)c2)cc1)[C@@H](C)OC [Compound 2b, Methyl ((2S, 2′S, 3R, 3′R)-((2S, 2′S)-(((((2R, 5R)-1-(4-(4,4-dimethylazasilinan-1-yl)-3-fluorophenyl)pyrrolidin-2,5-diyl)bis(4,1-phenylene))bis(azanediyl))bis(carbonyl))bis(pyrrolidin-2,1-diyl))bis(3-methoxy-1-oxobutan-1,2-diyl))dicarbamate]							0.014	> 0.1	0.016	0.454	0.065
COC(=O)N[C@H](C(=O)N1CCC[C@H]1C(=O)Nc1ccc([C@@H]2CC[C@@H](c3ccc4nc([C@@H]5CCCN5C(=O)[C@@H](NC(=O)OC)[C@@H](C)OC)[nH]c4c3)N2c2cc(F)c(N3CC[Si](C)(C)CC3)c(F)c2)cc1)[C@@H](C)OC [Compound 6a, Methyl ((2S,3R)-1-((S)-2-(6-((2S,5S)-1-(4-(4,4-dimethylazasilinan-1-yl)-3,5-difluorophenyl)-5-(4-((S)-1-(N-(methoxycarbonyl)-O-methyl-L-threonyl)pyrrolidin-2-formylamino)phenyl)pyrrolidin-2-yl)-1H-benzo[d]imidazol-2-yl)pyrrolidin-1-yl)-3-methoxy-1-oxobutan-2-yl)carbamate]							0.0052	> 0.1	0.0057	0.23	0.014
COC(=O)N[C@H](C(=O)N1CCC[C@H]1C(=O)Nc1ccc([C@H]2CC[C@H](c3ccc(NC(=O)[C@@H]4CCCN4C(=O)[C@@H](NC(=O)OC)[C@@H](C)OC)cc3)N2c2cc(F)c(N3CC[Si](C)(C)CC3)c(F)c2)cc1)[C@@H](C)OC [Compound 1b, Methyl ((2S,2′S,3R,3′R)-((2S,2′S)-(((((2R,5R)-1-(4-(4,4-dimethylazasilinan-1-yl)-3,5-difluorophenyl)pyrrolidin-2,5-diyl)bis(4,1-phenylene))bis(azanediyl))bis(carbonyl))bis(pyrrolidin-2,1-diyl))bis (3-methoxy-1-oxobutan-1,2-diyl))dicarbamate]							0.0048	> 0.1	0.0017	0.114	0.012
